Assay [1] has as its system IL-2 stimulated STAT5 phosphorylation on Tyr694 (JAK1/3). Nature of the assay: JAK1/3 cellular target modulation: IL-2 stimulated phospho-STAT5 in human PBMC. The format is cell-based. Conditions: IL-2 25 ng/ml, read-out: IL2-STAT5 IC50. An excerpt:
(§1) Target modulation was based upon the ability of a compound to inhibit JAK isoform specific phosphorylation of selected substrates. IL-2 stimulated STAT5 phosphorylation on Tyr694 was used to assess JAK1/3 compound selectivity. GM-CSF stimulated STAT5 phosphorylation on Tyr694 was used to assess JAK2 compound selectivity. IFNγ stimulated STAT1 phosphorylation on Tyr701 was used to assess JAK1/2 compound selectivity. IL-12 stimulated STAT4 phosphorylation on Tyr693 was used to assess JAK2/TYK2 compound selectivity. For all four assays, human PBMC from frozen stocks were thawed, pelleted, resuspended in complete media (90% RPMI, 10% heat inactivated FBS, 10 mM HEPES, 47 μM 2-ME, pen/strep) and placed in wells of a 96 well V-bottom plate at 200,000 per well in 120 μl complete media. Compounds were added as 15 μl per well of 10× working stock solutions in complete media with 1% DMSO (or medium with 1% DMSO for controls) and placed on a plate shaker in a 37° C. incubator with 5% CO2 for 1 hour with gentle shaking (setting of 3). Stimulation used the addition of soluble cytokines. For the JAK1/3 phospho-STAT5 assay, 15 μl of 10× working stock recombinant human IL-2 was added to a final concentration of 25 ng/ml. For the JAK2 phospho-STAT5 assay, 15 μl of 10× working stock recombinant human GM-CSF was added to a final concentration of 5 ng/ml. For the JAK1/2 phospho-STAT1 assay, 15 μl of 10× working stock of recombinant human IFNγ was added to a final concentration of 10 ng/ml. For the JAK2/TYK2 phospho-STAT4 assay, 15 μl of 10× working stock of recombinant human IL-12 was added to a final concentration of 1.7 ng/ml. Plates were then placed back on the plate shaker in the incubator for an additional 5, 5, 10, and 25 minutes respectively upon which the plates were removed from the incubator, sealed with a plate sealer and the cells pelleted at 400×g for 5 minutes. After pelleting, the media was removed by aspiration and the cells were lysed in assay specific cell lysis buffer. The levels of phospho-STAT5 were determined using a Phospho (Tyr694)STAT5a,b Whole Cell Lysate kit from Meso Scale Discovery. Levels of phospho-STAT1 were determined using a CST-PathScan Phospho-STAT1 (Tyr701) Sandwich ELISA kit. Levels of phospho-STAT4 were determined using a Phospho-STAT4 (Tyr693) Whole Cell Lysate kit from Meso Scale Discovery.

Another assay has as its target T1, JAK1 (Homo sapiens, UniProt P23458).
T1 construct: purchased Thermo Fisher Scientific (SelectScreen service)
The experiment in a line: JAK1 enzyme activity assay (Thermo Fisher Selectscreen, Z-lyte). Conditions: read-out: JAK1 Inhibition IC50. It counts as biochemical. The protocol: (§2) The inhibitory potency of candidate compounds of JAK1, JAK2, and Tyk-2 was done at Thermo Fisher Scientific in their Selectscreen using a Z-lyte assay. Following are the assay details for each enzyme.
JAK1: The 2×JAK-enzyme/Tyr 06 mixture is prepared in 50 mM HEPES pH 6.5, 0.01% BRIJ-35, 10 mM MgCl2, 1 mM EGTA, 0.02% NaN3. The final 10 μL of the Kinase Reaction consists of 21.2-91.5 ng JAK1 and 2 μM Tyr 06 in 50 mM HEPES pH 7.0, 0.01% BRIJ-35, 10 mM MgCl2, 1 mM EGTA, 0.01% NaN3. After the one hour Kinase Reaction incubation, 5 μL of a 1:128 dilution of Development Reagent is added.
(§3) Data reduction for JAK1, JAK2 and TYK2 is done the same, independent of the enzyme run. In summary, background signal is defined in the absence of enzyme and uninhibited signal is defined in the presence of vehicle (2% DMSO) alone. Compounds were evaluated in an 11 point dose-response ranging from […] to 0.34 nM. IC50 values of compounds are determined using a 4 parameter logistical fit of emission ratio as a function of the concentration of compound.

The next assay concerns the target T2, JAK3 (a.a. 781-1124) (Homo sapiens, UniProt P52333).
T2 construct: JAK3 (a.a. 781-1124, ThermoFisher); purchased ThermoFisher
The experiment in a line: JAK3 enzyme activity assay (SRCtide phosphorylation, Caliper). It counts as biochemical. Conditions: 1 uM ATP; read-out: JAK3 Inhibition IC50. The protocol: The activity of JAK3 (a.a. 781-1124, ThermoFisher) was quantified by measuring the phosphorylation of SRCtide (FAM-GEEPLYWSFPAKKK-NH2). Kinase reactions were run in a 384-well Greiner plate with 2% final DMSO concentration under the buffer conditions of 20 mM HEPES, pH 7.5, 10 mM MgCl2, 0.01% BSA, and 0.0005% Tween-20. The kinase reaction components were 2.5 nM JAK3, 1 μM SRCtide peptide and 1 uM ATP. Examples were tested in dose-response starting at […] (11 concentrations, 3-fold serial dilution, duplicate reactions). The reactions were incubated at room temperature for 40 minutes, then stopped by adding a 1:1 volume of 30 mM EDTA in 20 mM HEPES, pH 7.5 (15 mM EDTA final). After the reaction was stopped, the phosphorylated and unphosphorylated peptides were separated and quantified using a Caliper LC3000/EZ-Reader system and HTS Well Analyzer Software (Caliper, A PerkinElmer Company, Hopkinton, Mass.). GraFit (Erithacus Software Ltd., Horley, U.K.) was used to calculate inhibitor potency by fitting dose-response data to the 4-parameter logistical IC50 equation.

Another assay addresses T3, JAK2 (Homo sapiens, UniProt O60674).
T3 construct: purchased Thermo Fisher Scientific (SelectScreen service)
Nature of the assay: JAK2 enzyme activity assay (Thermo Fisher Selectscreen, Z-lyte). The format is biochemical. Conditions: read-out: JAK2 Inhibition IC50. As to the method:
as §2
JAK2: The 2×JAK2/Tyr 06 mixture is prepared in 50 mM HEPES pH 7.5, 0.01% BRIJ-35, 10 mM MgCl2, 1 mM EGTA. The final 10 μL Kinase Reaction consists of 0.12-0.5 ng JAK2 and 2 μM Tyr 06 in 50 mM HEPES pH 7.5, 0.01% BRIJ-35, 10 mM MgCl2, 1 mM EGTA. After the one hour Kinase Reaction incubation, 5 μL of a 1:128 dilution of Development Reagent A is added.
as §3

Another assay deals with T4, Tyk-2 (Homo sapiens, UniProt P29597).
T4 construct: purchased Thermo Fisher Scientific (SelectScreen service)
T4 sequence (P29597 whole entry): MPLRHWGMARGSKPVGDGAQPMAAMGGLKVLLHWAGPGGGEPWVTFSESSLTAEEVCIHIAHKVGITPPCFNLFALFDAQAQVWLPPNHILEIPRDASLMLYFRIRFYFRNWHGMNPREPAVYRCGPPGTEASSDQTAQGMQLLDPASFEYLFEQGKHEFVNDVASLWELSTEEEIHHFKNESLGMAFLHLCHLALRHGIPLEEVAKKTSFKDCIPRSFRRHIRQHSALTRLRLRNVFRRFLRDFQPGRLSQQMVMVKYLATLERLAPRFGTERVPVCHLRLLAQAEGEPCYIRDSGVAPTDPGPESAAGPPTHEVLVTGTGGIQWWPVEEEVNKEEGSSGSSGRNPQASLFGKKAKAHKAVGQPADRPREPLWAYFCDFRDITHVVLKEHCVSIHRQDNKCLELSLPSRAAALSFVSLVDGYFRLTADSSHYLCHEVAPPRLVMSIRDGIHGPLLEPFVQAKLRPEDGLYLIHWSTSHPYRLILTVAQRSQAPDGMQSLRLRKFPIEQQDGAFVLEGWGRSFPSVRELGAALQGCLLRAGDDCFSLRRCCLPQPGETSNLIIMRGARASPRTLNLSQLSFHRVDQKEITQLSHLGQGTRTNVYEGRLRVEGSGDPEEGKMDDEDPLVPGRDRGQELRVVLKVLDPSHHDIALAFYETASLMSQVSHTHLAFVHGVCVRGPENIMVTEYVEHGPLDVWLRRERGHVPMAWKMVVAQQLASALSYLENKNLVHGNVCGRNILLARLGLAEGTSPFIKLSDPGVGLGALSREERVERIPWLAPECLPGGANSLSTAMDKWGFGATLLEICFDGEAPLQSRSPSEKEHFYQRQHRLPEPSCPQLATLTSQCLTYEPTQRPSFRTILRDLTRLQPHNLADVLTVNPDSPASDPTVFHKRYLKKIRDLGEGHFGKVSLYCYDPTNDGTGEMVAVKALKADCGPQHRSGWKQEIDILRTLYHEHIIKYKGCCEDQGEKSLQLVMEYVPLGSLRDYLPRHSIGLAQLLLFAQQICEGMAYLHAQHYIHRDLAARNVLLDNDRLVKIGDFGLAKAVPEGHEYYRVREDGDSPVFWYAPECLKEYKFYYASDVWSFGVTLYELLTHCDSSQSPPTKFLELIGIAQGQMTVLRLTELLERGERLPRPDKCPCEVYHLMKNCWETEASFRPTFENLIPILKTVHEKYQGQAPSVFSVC
The experiment in a line: Tyk-2 enzyme activity assay (Thermo Fisher Selectscreen, Z-lyte). It counts as biochemical. Conditions: read-out: Tyk-2 Inhibition IC50. As to the method:
as §2
TYK2: The 2×TYK2/Tyr 03 mixture is prepared in 50 mM HEPES pH 6.5, 0.01% BRIJ-35, 10 mM MgCl2, 1 mM EGTA, 0.02% NaN3. The final 10 μL Kinase Reaction consists of 3.75-15 ng TYK2 and 2 μM Tyr 03 in 50 mM HEPES pH 7.0, 0.01% BRIJ-35, 10 mM MgCl2, 1 mM EGTA, 0.01% NaN3. After the one hour KinaseReaction incubation, 5 μL of a 1:4096 dilution of Development Reagent A is added.
as §3

Assay [2] deals with IL-12 stimulated STAT4 phosphorylation on Tyr693 (JAK2/TYK2). The experiment in a line: JAK2/TYK2 cellular target modulation: IL-12 stimulated phospho-STAT4 in human PBMC. It counts as cell-based. Conditions: IL-12 1.7 ng/ml, read-out: IL12-STAT4 IC50.
Excerpt: as §1

The test system of assay [3] is IFNγ stimulated STAT1 phosphorylation on Tyr701 (JAK1/2). The experiment in a line: JAK1/2 cellular target modulation: IFNγ stimulated phospho-STAT1 in human PBMC. It counts as cell-based. Conditions: IFNγ 10 ng/ml, read-out: Infγ-STAT1 IC50.
Excerpt: as §1

Some results are limits rather than exact numbers.

T2 sequence (P52333 781-1124): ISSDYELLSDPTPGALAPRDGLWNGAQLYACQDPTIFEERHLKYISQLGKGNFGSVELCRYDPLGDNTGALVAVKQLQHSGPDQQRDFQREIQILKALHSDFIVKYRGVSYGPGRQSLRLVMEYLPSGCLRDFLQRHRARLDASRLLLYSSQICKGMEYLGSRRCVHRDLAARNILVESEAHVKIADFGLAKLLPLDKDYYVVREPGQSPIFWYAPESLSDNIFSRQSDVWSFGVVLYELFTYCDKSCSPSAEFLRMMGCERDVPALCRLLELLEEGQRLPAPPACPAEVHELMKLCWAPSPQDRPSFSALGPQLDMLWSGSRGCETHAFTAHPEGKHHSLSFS
T1 sequence (P23458 whole entry): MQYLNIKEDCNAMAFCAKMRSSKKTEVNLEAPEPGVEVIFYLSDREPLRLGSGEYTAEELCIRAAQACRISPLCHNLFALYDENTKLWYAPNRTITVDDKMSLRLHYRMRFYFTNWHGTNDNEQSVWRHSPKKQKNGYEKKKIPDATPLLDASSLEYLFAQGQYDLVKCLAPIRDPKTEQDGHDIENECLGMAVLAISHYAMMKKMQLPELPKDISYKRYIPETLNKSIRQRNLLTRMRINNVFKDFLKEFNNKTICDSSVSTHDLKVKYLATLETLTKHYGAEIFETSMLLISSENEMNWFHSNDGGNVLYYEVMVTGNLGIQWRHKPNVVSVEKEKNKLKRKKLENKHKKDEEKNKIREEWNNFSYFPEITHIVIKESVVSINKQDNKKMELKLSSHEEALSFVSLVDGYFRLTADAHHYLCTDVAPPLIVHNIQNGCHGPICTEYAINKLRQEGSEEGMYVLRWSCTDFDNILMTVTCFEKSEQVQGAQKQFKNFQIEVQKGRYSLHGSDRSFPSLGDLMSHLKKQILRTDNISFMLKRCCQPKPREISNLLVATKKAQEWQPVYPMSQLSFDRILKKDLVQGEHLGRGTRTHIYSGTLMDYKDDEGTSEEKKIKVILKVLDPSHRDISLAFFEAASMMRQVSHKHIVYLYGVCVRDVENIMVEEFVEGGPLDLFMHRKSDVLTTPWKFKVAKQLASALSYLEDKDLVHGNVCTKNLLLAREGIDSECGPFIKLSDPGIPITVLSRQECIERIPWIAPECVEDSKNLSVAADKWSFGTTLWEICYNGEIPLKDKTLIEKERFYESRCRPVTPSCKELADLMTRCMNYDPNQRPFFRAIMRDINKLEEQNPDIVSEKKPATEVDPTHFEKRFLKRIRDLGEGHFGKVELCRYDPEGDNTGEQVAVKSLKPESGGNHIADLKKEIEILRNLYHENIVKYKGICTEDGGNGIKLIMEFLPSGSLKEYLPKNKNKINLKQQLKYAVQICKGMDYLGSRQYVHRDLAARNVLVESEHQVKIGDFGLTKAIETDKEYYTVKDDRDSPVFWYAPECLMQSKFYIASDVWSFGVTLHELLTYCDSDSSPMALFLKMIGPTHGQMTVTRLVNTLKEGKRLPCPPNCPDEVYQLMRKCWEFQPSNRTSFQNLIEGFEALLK
T3 sequence (O60674 whole entry): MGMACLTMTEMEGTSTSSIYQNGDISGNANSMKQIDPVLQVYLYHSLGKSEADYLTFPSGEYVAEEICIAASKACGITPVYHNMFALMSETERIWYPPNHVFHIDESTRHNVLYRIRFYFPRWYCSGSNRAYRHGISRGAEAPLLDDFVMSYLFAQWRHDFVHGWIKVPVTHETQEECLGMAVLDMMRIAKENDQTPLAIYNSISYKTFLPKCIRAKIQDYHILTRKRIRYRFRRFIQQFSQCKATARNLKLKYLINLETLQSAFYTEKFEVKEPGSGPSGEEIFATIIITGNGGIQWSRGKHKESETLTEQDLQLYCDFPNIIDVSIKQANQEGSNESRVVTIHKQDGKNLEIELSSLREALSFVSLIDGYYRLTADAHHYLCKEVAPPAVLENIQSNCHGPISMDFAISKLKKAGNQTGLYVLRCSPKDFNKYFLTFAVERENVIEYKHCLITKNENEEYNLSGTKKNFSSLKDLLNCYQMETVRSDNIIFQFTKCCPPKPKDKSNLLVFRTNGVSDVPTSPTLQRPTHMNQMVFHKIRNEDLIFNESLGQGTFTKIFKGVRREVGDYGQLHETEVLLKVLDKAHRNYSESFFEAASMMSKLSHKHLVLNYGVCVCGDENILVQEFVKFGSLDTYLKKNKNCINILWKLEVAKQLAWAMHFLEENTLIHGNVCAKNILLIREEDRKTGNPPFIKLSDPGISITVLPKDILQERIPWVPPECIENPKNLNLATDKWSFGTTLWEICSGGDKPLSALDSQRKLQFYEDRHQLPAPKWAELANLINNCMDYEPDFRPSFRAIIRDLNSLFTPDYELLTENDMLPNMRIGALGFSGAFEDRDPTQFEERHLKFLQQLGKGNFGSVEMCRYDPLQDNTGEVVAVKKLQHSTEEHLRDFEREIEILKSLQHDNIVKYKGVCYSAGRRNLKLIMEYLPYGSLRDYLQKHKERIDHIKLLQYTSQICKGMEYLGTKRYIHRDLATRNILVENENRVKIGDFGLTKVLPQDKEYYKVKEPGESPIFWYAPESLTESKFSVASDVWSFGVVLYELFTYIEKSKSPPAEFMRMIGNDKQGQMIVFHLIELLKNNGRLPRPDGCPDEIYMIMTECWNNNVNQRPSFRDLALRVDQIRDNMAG

One may read the IC50 as the concentration that gives 50% inhibition. As for `N#Cc1cccc(S(=O)(=O)N[C@H]2C[C@@H](Nc3c(-c4ccncn4)cnc4[nH]ccc34)C2)c1` [Example 64, 3-cyano-N-((1s,3s)-3-((5-(pyrimidin-4-yl)-1H-pyrrolo[2,3-b]pyridin-4-yl)amino)cyclobutyl)benzenesulfonamide], the IC50 was at most 100 nM in assay [1]; at most 10 nM at JAK1; at most 10 nM at JAK3 (a.a. 781-1124); at most 10 nM on JAK2; at most 10 nM at Tyk-2; above 1000 nM in assay [2]. In assay [3], the IC50 is 100 to 1000 nM.
As for `Cc1nnc(-c2cnc3[nH]ccc3c2N[C@H]2C[C@@H](NS(=O)(=O)c3cc(C#N)ccn3)C2)o1` [Example 83, 4-cyano-N-((1s,3s)-3-((5-(5-methyl-1,3,4-oxadiazol-2-yl)-1H-pyrrolo[2,3-b]pyridin-4-yl)amino)cyclobutyl)pyridine-2-sulfonamide], the IC50 at JAK1 was 100 to 1000 nM; at JAK3 (a.a. 781-1124) it was above 1000 nM; at JAK2, 100 to 1000 nM; on Tyk-2, above 1000 nM.
Regarding `CCOC(=O)c1cnc2[nH]ccc2c1N[C@H]1C[C@H](NS(=O)(=O)c2cccc(C#N)c2)C1` [Example 3, trans-Ethyl 4-((3-((3-cyanophenyl)sulfonamido)cyclobutyl)amino)-1H-pyrrolo[2,3-b]pyridine-5-carboxylate], the 50% inhibitory concentration (IC50) in assay [1] was 100 to 1000 nM; on JAK1 it was at most 10 nM; at JAK3 (a.a. 781-1124), 10 to 100 nM; at JAK2 it was 10 to 100 nM; at Tyk-2, 10 to 100 nM; in assay [3], 100 to 1000 nM.
For the compound `CCOC(=O)c1cnc2[nH]ccc2c1N[C@H]1C[C@@H](NS(=O)(=O)c2cccc(C#N)c2)C1` [Example 2, cis-Ethyl 4-((3-((3-cyanophenyl)sulfonamido)cyclobutyl)amino)-1H-pyrrolo[2,3-b]pyridine-5-carboxylate], the IC50 in assay [1] was at most 100 nM; at JAK1, at most 10 nM; on JAK3 (a.a. 781-1124), 10 to 100 nM; on JAK2, 10 to 100 nM; at Tyk-2 it was 10 to 100 nM; in assay [3], 100 to 1000 nM.
Turning to `CCCS(=O)(=O)N[C@H]1C[C@@H](Nc2c(-c3nnco3)cnc3[nH]ccc23)C1` [Example 80, N-((1s,3s)-3-((5-(1,3,4-oxadiazol-2-yl)-1H-pyrrolo[2,3-b]pyridin-4-yl)amino)cyclobutyl)propane-1-sulfonamide], the IC50 was 100 to 1000 nM in assay [1]; 10 to 100 nM at JAK1; 10 to 100 nM at JAK3 (a.a. 781-1124); 10 to 100 nM on JAK2; 100 to 1000 nM at Tyk-2; above 1000 nM in assay [2].
In the case of `CCCS(=O)(=O)N[C@H]1C[C@@H](Nc2c(-c3ncco3)cnc3[nH]ccc23)C1` [Example 65, N-((1s,3s)-3-((5-(1,3-oxazol-2-yl)-1H-pyrrolo[2,3-b]pyridin-4-yl)amino)cyclobutyl)propane-1-sulfonamide], the half-maximal inhibitory concentration (IC50) in assay [1] is at most 100 nM; on JAK1, at most 10 nM; at JAK3 (a.a. 781-1124), 10 to 100 nM; on JAK2 it was at most 10 nM; on Tyk-2, 10 to 100 nM; in assay [2], above 1000 nM.
On to `CNC(=O)c1ccnc(-c2cnc3[nH]ccc3c2N[C@H]2C[C@@H](NS(=O)(=O)c3cc(C#N)ccn3)C2)c1` [Example 67, 2-(4-(((1s,3s)-3-((4-cyanopyridine)-2-sulfonamido)cyclobutyl)amino)-1H-pyrrolo[2,3-b]pyridin-5-yl)-N-methylisonicotinamide], for which the IC50 in assay [1] is 100 to 1000 nM; on JAK1 it was at most 10 nM; on JAK3 (a.a. 781-1124) it was 100 to 1000 nM; at JAK2 it was 10 to 100 nM; at Tyk-2, 10 to 100 nM; in assay [3] it was above 1000 nM.
For `CCOC(=O)c1cnc2[nH]ccc2c1NC1CC(NS(=O)(=O)c2cc(C#N)ccn2)C1` (mixture of isomers) [Example 1, ethyl 4-((3-((4-cyanopyridine)-2-sulfonamido)cyclobutyl)amino)-1H-pyrrolo[2,3-b]pyridine-5-carboxylate], the IC50 was 100 to 1000 nM in assay [1]; 10 to 100 nM at JAK1; 10 to 100 nM on JAK3 (a.a. 781-1124); 100 to 1000 nM on JAK2; 100 to 1000 nM on Tyk-2; above 1000 nM in assay [3].
Turning to `CCOC(=O)c1cnc2[nH]ccc2c1N[C@H]1C[C@H](NS(=O)(=O)c2cc(C#N)ccn2)C1` [Example 4, ethyl 4-(((1r,3r)-3-((4-cyanopyridine)-2-sulfonamido)cyclobutyl)amino)-1H-pyrrolo[2,3-b]pyridine-5-carboxylate], the IC50 is above 1000 nM in assay [1]; 10 to 100 nM on JAK1; 10 to 100 nM on JAK3 (a.a. 781-1124); 10 to 100 nM on JAK2; 100 to 1000 nM at Tyk-2.
As for `CCCS(=O)(=O)N[C@H]1C[C@@H](Nc2c(-c3cc(C(=O)NC)ccn3)cnc3[nH]ccc23)C1` [Example 68, N-methyl-2-(4-(((1s,3s)-3-(propylsulfonamido)cyclobutyl)amino)-1H-pyrrolo[2,3-b]pyridin-5-yl)isonicotinamide], the IC50 was above 1000 nM in assay [1]; 10 to 100 nM on JAK1; 10 to 100 nM on JAK3 (a.a. 781-1124); 100 to 1000 nM on JAK2; 100 to 1000 nM at Tyk-2.
